In data set [1] the test system is SW480 cells. Briefly: Soft agar colony formation assay with SW480 cells. The data set is classed as cell-based, human. Particulars: Homo sapiens, 192 h, 5000 cells/well, colonies counted after 8 days.
Data set [2] relates to MCF7. Particulars: human. On the procedure: (§1) Cytotoxicity of COMPOUND 3 (an analog of COMPOUND 1, FIG. 1A) and other anticancer therapeutics were measured using cancer cells with various origins.
Data set [3] has as its system RPM17951. Particulars: human. On the procedure:
as §1

For data set [4], the system named is HL60. Particulars: human. The method, then: as §1
Data set [5] has as its system A549. Particulars: human. On the procedure: as §1
Data set [6] deals with PC3. Particulars: human. The method, then:
as §1

For data set [7], the system named is 293. Particulars: human. On the procedure:
as §1

The test system of data set [8] is Min mouse. Briefly: Polyp number in Min mouse model. Format: in vivo. Particulars: for Polyp Number (Mean + S.D.), Colon / Polyp Number (Mean + S.D.), Small intestine / Polyp Number (Mean + S.D.), Total / % Inhibition vs. VH: Min mouse; for % Inhibition vs. VH: total polyp number vs. vehicle. The method, then: COMPOUND 4, COMPOUND 5, or vehicle was administrated in wild type and Min mice. COMPOUND 4 is also an analog of COMPOUND 1 (FIG. 1A). The numbers of polyp formed in small intestine and colon of these mice after various treatments were measured (Table 6).

Some results are limits rather than exact numbers.

Regarding `O=c1[nH]cc(F)c(=O)[nH]1` [5-FU, 5-fluorouracil], in data set [1], the IC50 is 1.98 ± 0.17 µM. Further, the Cytotoxicity in data set [2] is 1.751 µg/mL; in data set [3], 0.920 µg/mL; in data set [4] it was 7.010 µg/mL; in data set [5], 1.007 µg/mL; in data set [6] it was above 10 µg/mL; in data set [7] it was 2.015 µg/mL.
On to `COc1cccc2c1C(=O)c1c(O)c3c(c(O)c1C2=O)C[C@@](O)(C(=O)CO)C[C@@H]3O[C@H]1C[C@H](N)[C@H](O)[C@H](C)O1` [ADR, adriamycin], for which the Cytotoxicity in data set [2] is 1.424 µg/mL; in data set [3], 0.171 µg/mL; in data set [4], 0.086 µg/mL; in data set [5] it was 0.117 µg/mL; in data set [6] it was 0.267 µg/mL; in data set [7], below 0.03 µg/mL.
Turning to `CN1CC(=O)N2C(Cc3ccc(O)cc3)C(=O)N(Cc3cccc4cccnc34)CC2N1C(=O)NCc1ccccc1` (stereo not shown) [COMPOUND 4], in data set [8] (Min mice, about 300 mpk), the “Effect on number of polyp compared to vehicle control” value is “reduce the number of polyp”. Further, in data set [8] (300 mpk), the “Polyp Number (Mean + S.D.), Colon” value is listed as 1.4 ± 0.9; the “Polyp Number (Mean + S.D.), Small intestine” value is on record as 45.2 ± 22.1; the “Polyp Number (Mean + S.D.), Total” value is reported as 46.8 ± 17.0; the “% Inhibition vs. VH” value is 31%.
As to `CC1=C(CC(=O)O)c2cc(F)ccc2/C1=C\c1ccc([S+](C)[O-])cc1` (stereo not shown) [Sulindac, reference compound], in data set [8] (160 ppm), the “Polyp Number (Mean + S.D.), Colon” value turned out to be 0.5 ± 0.5; the “Polyp Number (Mean + S.D.), Small intestine” value amounted to 48.0 ± 20.7; the “Polyp Number (Mean + S.D.), Total” value worked out at 48.5 ± 20.9; the “% Inhibition vs. VH” value was 28%.

Source of the values: patent publication US7531320B2, “Modulation of β-catenin/TCF-activated transcription” (priority 2003, dated 2009).
